Laboratory results taken from patent US9433605B2, “Method for promoting synthesis of tissue collagen” (Kyowa Hakko Bio Co., Ltd., priority 2006, dated 2016).

Legend:
[1] = Concentration of free hydroxyproline in serum and skin after oral intake; assay type: in vivo; conditions: HOS:HR-1 mouse, 500 mg/kg oral, 0.5-24 hours, FIGS. 1 and 2
Description: HOS:HR-1 mouse (seven-week-old female; purchased from Japan SLC, Inc.) was used in the test.
Trans-4-hydroxy-L-proline (Kyowa Hakko Kogyo Co., Ltd.; hereinafter referred to as hydroxyproline) was dissolved in purified water at a concentration of 50 mg/ml, and the resulting solution was orally administered in an amount of 500 mg/kg. After 0.5, 1, 2, 4, 6 and 24 hours, blood was collected from the abdominal vena cava of the mouse under diethyl ether inhalation anesthesia to obtain a serum. After cervical dislocation, dorsal skin was collected, subjected to freeze-disruption and then to extraction with water to obtain a skin extract.
The amount of hydroxyproline in the sera and the skin extract was analyzed by high performance liquid chromatography using ODS column ([…]×15 cm, GL Sciences Inc.) after protein was removed with an equal amount of 2% (w/v) sulfosalicylic acid and the second amino group was labeled with NBD-Cl (4-chloro-7-nitro-2,1,3-benzoxadiazole, Tokyo Chemical Industry Co., Ltd.).

skin wrinkles or sagging = assay: Parallel-group double-blind test, 10-level self-rating of facial skin condition; assay type: in vivo, human; conditions: oral ingestion, 4 weeks, conclusion from Table 2
Description: Females aged 47 to 65 years (21 subjects) who chronically suffer from dry skin and rough skin were divided into two groups. After a 2-week observation period, Group 1 (9 subjects) and Group 2 (12 subjects) ingested hard capsules of Example 6 and hard capsules of Comparative Example 2, respectively, for 4 weeks (2 capsules each morning and evening). The test was carried out by parallel-group double-blind test. At the start and the end of the period of ingesting hard capsules, the following questions 1 to 3 were addressed to the subjects (answer “1”: level 1, answer “10”: level 10) and the skin conditions of the subjects were evaluated by a 10-level rating system. • Question 1: Evaluate the level of wrinkles on your face.
1: Wrinkles all over the surface
10: No wrinkles • Question 2: Evaluate the elasticity of the skin of your face.
10: Extreme elasticity • Question 3: Evaluate the firmness of the skin of your face.
The improvement rate (%) was calculated according to Equation 1. Improvement rate (%)=average value of levels after intake/average value of levels before intake×100 [Equation 1]

[2] = tested on: synthesis of collagen in the skin; assay: Subcutaneous sponge implant: amount of hydroxyproline as index of collagen-synthesizing and tissue-restoring ability; assay type: in vivo; conditions: rats, sponge pieces, Student's t-test p < 0.05
Description: F344/DuCrlCrlj rats (12 heads, 29-week-old male; purchased from Charles River Laboratories Japan, Inc.) were divided into 2 groups each consisting of 6 rats.
The rats of Group 1 and Group 2 were fed with the feed of Example 5 and the control feed of Comparative Example 1, respectively, ad libitum for 7 days. The abdominal area of each rat was shaved with clippers under anesthesia by intraperitoneal administration of pentobarbital, and cut sponge pieces (ca. 150 mg, 2 mm thick, ca. 38 mm×12 mm; Ivalon, Inc.) were inserted into two spots under the skin, followed by suturing. After further feeding for 7 days, the sponge pieces were taken out.
The sponge pieces were subjected to reaction using 6N hydrochloric acid (20 ml/piece) at 110° C. for 18 hours to decompose them with acid and heat. The products obtained by decomposition with acid and heat were diluted 10 times with 1M borate buffer (pH 10.6), and the amount of hydroxyproline was measured in the same manner as in Test Example 1 and was regarded as an index of the collagen-synthesizing ability and tissue-restoring ability of a rat.
The values were shown in terms of average value ±standard deviation and a test of statistical significance was performed by Student's t-test.

**Q.** For `O=C(O)[C@@H]1C[C@@H](O)CN1` [hydroxyproline, Trans-4-hydroxy-L-proline], which “movement of orally ingested hydroxyproline into blood and skin (free hydroxyproline in serum and skin extract)” value [1] is on record?
**A.** quickly moves into blood and skin

**Q.** What about the “wrinkles and sagging of the face” value (skin wrinkles or sagging) of the same compound?
**A.** improved

**Q.** And the “amount of hydroxyproline derived from heat-decomposed collagen (versus control feed)” value [2]?
**A.** significantly increased
